Measurements from US9474790B2, “Stable, protracted GLP-1/glucagon receptor co-agonists for medical use” (Novo Nordisk A/S, priority 2013, dated 2016).
Numbered stars: 1 amine (or outer) side, 2 acyl side, 3 side chain; on linkers, the order of the positions; unused ones are H or OH. Square brackets hold non-standard residues; d marks the D form. Side chains are listed from the residue outwards. Peptide text beside a SMILES is read from it. * marks the point of attachment. C18 diacid = O=C(O)CCCCCCCCCCCCCCCCC(=O)*; γGlu = O=C(O)[C@H](CCC(=O)[*:2])N[*:1]; Ac4c = NC1(C(=O)O)CCC1; AEEA = NCCOCCOCC(=O)O; Aib = CC(C)(N)C(=O)O

Test: Thioflavin T (ThT) fibrillation assay for physical stability
Format: physicochemical
Settings: 250 μM in 10 mM HEPES buffer, pH 7.5, 37° C., shaking 960 rpm
In short: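 Peptide at 250 μM in 10 mM HEPES pH 7.5 with 1 μM ThT, at 37° C with 960 rpm orbital shaking. Fluorescence (ex 444/em 485 nm) read every 20 min after 10 min pre-incubation; sigmoidal fit gives lag time (t0−2τ) and kapp (1/τ). Recovery is RP-HPLC peptide in the centrifuged, 0.22 μm-filtered supernatant as % of initial.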

THT assay Lag time (Ex. 76) | SMILES
6 h | CC(C)C[C@H](NC(=O)[C@H](Cc1ccc(O)cc1)NC(=O)[C@H](CCCCN)NC(=O)[C@H](CO)NC(=O)[C@H](CC(C)C)NC(=O)[C@H](CC(=O)O)NC(=O)[C@H](CO)NC(=O)[C@@H](NC(=O)[C@H](Cc1ccccc1)NC(=O)[C@@H](NC(=O)CNC(=O)[C@H](CCC(N)=O)NC(=O)C(C)(C)NC(=O)[C@@H](N)Cc1c[nH]cn1)[C@@H](C)O)[C@@H](C)O)C(=O)N[C@@H](CCC(=O)O)C(=O)N[C@@H](CO)C(=O)N[C@@H](CCCNC(=N)N)C(=O)N[C@@H](CCCNC(=N)N)C(=O)N[C@@H](C)C(=O)N[C@@H](CCCNC(=N)N)C(=O)N[C@@H](CCC(=O)O)C(=O)N[C@@H](Cc1ccccc1)C(=O)N[C@H](C(=O)N[C@@H](CCC(N)=O)C(=O)N[C@@H](Cc1c[nH]c2ccccc12)C(=O)N[C@@H](CC(C)C)C(=O)N[C@@H](CC(C)C)C(=O)N[C@@H](CCCCNC(=O)CC[C@H](NC(=O)COCCOCCNC(=O)COCCOCCNC(=O)CC[C@H](NC(=O)CC[C@H](NC(=O)CCCCCCCCCCCCCCCCC(=O)O)C(=O)O)C(=O)O)C(=O)O)C(=O)N[C@H](C(N)=O)[C@@H](C)O)C(C)C [Example 20, N^ε29-[(4S)-4-carboxy-4-[[2-[2-[2-[[2-[2-[2-[[(4S)-4-carboxy-4-[[(4S)-4-carboxy-4-(17-carboxyheptadecanoylamino)butanoyl]amino]butanoyl]amino]ethoxy]ethoxy]acetyl]amino]ethoxy]ethoxy]acetyl]amino]butanoyl]-[Aib2,Leu10,Glu15,Arg20,Glu21,Leu27,Lys28]-Glucagon amide] (H-H[Aib]QGTFTSDLSKYLESRRAREFVQWLLK([γGlu-AEEA-AEEA-γGlu-γGlu-C18 diacid])T-NH2; N-terminus assumed)
45 h | CC(C)C[C@H](NC(=O)[C@H](CC(C)C)NC(=O)[C@H](Cc1c[nH]c2ccccc12)NC(=O)[C@H](CCC(N)=O)NC(=O)[C@@H](NC(=O)[C@H](Cc1ccccc1)NC(=O)[C@H](CCC(=O)O)NC(=O)[C@H](CCC(N)=O)NC(=O)[C@H](C)NC(=O)[C@H](C)NC(=O)[C@H](CCCCN)NC(=O)[C@H](CO)NC(=O)[C@H](CC(=O)O)NC(=O)[C@H](CC(C)C)NC(=O)[C@H](Cc1ccc(O)cc1)NC(=O)[C@H](CCCCN)NC(=O)[C@H](CO)NC(=O)[C@H](CC(C)C)NC(=O)[C@H](CC(=O)O)NC(=O)[C@H](CO)NC(=O)[C@@H](NC(=O)[C@H](Cc1ccccc1)NC(=O)[C@@H](NC(=O)CNC(=O)[C@H](CCC(N)=O)NC(=O)C(C)(C)NC(=O)[C@@H](N)Cc1c[nH]cn1)[C@@H](C)O)[C@@H](C)O)C(C)C)C(=O)N[C@@H](CC(N)=O)C(=O)N[C@@H](CCCCNC(=O)CC[C@H](NC(=O)CC[C@H](NC(=O)COCCOCCNC(=O)COCCOCCNC(=O)CC[C@H](NC(=O)CCCCCCCCCCCCCCCCC(=O)O)C(=O)O)C(=O)O)C(=O)O)C(N)=O [Example 8, N^ε29-[(4S)-4-carboxy-4-[[(4S)-4-carboxy-4-[[2-[2-[2-[[2-[2-[2-[[(4S)-4-carboxy-4-(17-carboxyheptadecanoylamino)butanoyl]amino]ethoxy]ethoxy]acetyl]amino]ethoxy]ethoxy]acetyl]amino]butanoyl]amino]butanoyl]-[Aib2,Leu10,Lys17,Ala18,Glu21,Leu27,Lys29]-Glucagon amide] (H-H[Aib]QGTFTSDLSKYLDSKAAQEFVQWLLNK([γGlu-γGlu-AEEA-AEEA-γGlu-C18 diacid])-NH2; N-terminus assumed)
45 h | CC(C)C[C@H](NC(=O)[C@H](Cc1ccc(O)cc1)NC(=O)[C@H](CCCCN)NC(=O)[C@H](CO)NC(=O)[C@H](CC(C)C)NC(=O)[C@H](CC(=O)O)NC(=O)[C@H](CO)NC(=O)[C@@H](NC(=O)[C@H](Cc1ccccc1)NC(=O)[C@@H](NC(=O)CNC(=O)[C@H](Cc1c[nH]cn1)NC(=O)C(C)(C)NC(=O)[C@@H](N)Cc1c[nH]cn1)[C@@H](C)O)[C@@H](C)O)C(=O)N[C@@H](CCC(=O)O)C(=O)N[C@@H](CO)C(=O)N[C@@H](CCCNC(=N)N)C(=O)N[C@@H](CCCNC(=N)N)C(=O)N[C@@H](C)C(=O)N[C@@H](CCCNC(=N)N)C(=O)N[C@@H](CCC(=O)O)C(=O)N[C@@H](Cc1ccccc1)C(=O)N[C@H](C(=O)N[C@@H](CCC(N)=O)C(=O)N[C@@H](Cc1c[nH]c2ccccc12)C(=O)N[C@@H](CC(C)C)C(=O)N[C@@H](CC(C)C)C(=O)N[C@@H](CCCCNC(=O)CC[C@H](NC(=O)COCCOCCNC(=O)COCCOCCNC(=O)CC[C@H](NC(=O)CC[C@H](NC(=O)CCCCCCCCCCCCCCCCC(=O)O)C(=O)O)C(=O)O)C(=O)O)C(=O)N[C@H](C(N)=O)[C@@H](C)O)C(C)C [Example 30, N^ε28-[(4S)-4-carboxy-4-[[2-[2-[2-[[2-[2-[2-[[(4S)-4-carboxy-4-[[(4S)-4-carboxy-4-(17-carboxyheptadecanoylamino)butanoyl]amino]butanoyl]amino]ethoxy]ethoxy]acetyl]amino]ethoxy]ethoxy]acetyl]amino]butanoyl]-[Aib2,His3,Leu10,Glu15,Arg20,Glu21,Leu27,Lys28]-Glucagon amide] (H-H[Aib]HGTFTSDLSKYLESRRAREFVQWLLK([γGlu-AEEA-AEEA-γGlu-γGlu-C18 diacid])T-NH2; N-terminus assumed)
45 h | CC(C)C[C@H](NC(=O)[C@H](CC(=O)O)NC(=O)[C@H](CC(C)C)NC(=O)[C@H](Cc1ccc(O)cc1)NC(=O)[C@H](CCCNC(=N)N)NC(=O)[C@H](CO)NC(=O)[C@H](CC(C)C)NC(=O)[C@H](CC(=O)O)NC(=O)[C@H](CO)NC(=O)[C@@H](NC(=O)[C@H](Cc1ccccc1)NC(=O)[C@@H](NC(=O)CNC(=O)[C@H](CCC(N)=O)NC(=O)C1(NC(=O)[C@@H](N)Cc2c[nH]cn2)CCC1)[C@@H](C)O)[C@@H](C)O)C(=O)N[C@@H](CCCNC(=N)N)C(=O)N[C@@H](CCCNC(=N)N)C(=O)N[C@@H](C)C(=O)N[C@@H](CCCNC(=N)N)C(=O)N[C@@H](CC(=O)O)C(=O)N[C@@H](Cc1ccccc1)C(=O)N[C@H](C(=O)N[C@@H](CCC(N)=O)C(=O)N[C@@H](Cc1c[nH]c2ccccc12)C(=O)N[C@@H](CC(C)C)C(=O)N[C@@H](CC(C)C)C(=O)N[C@@H](CCCCNC(=O)CC[C@H](NC(=O)CC[C@H](NC(=O)COCCOCCNC(=O)COCCOCCNC(=O)CC[C@H](NC(=O)CC[C@H](NC(=O)CCCCCCCCCCCCCCCCC(=O)O)C(=O)O)C(=O)O)C(=O)O)C(=O)O)C(=O)N[C@H](C(N)=O)[C@@H](C)O)C(C)C [Example 46, N^ε28-[(4S)-4-carboxy-4-[[(4S)-4-carboxy-4-[[2-[2-[2-[[2-[2-[2-[[(4S)-4-carboxy-4-[[(4S)-4-carboxy-4-(17-carboxyheptadecanoylamino)butanoyl]amino]butanoyl]amino]ethoxy]ethoxy]acetyl]amino]ethoxy]ethoxy]acetyl]amino]butanoyl]amino]butanoyl]-[Acb2,Leu10,Arg12,Leu16,Arg20,Leu27,Lys28]-Glucagon amide] (H-H[Ac4c]QGTFTSDLSRYLDLRRARDFVQWLLK([γGlu-γGlu-AEEA-AEEA-γGlu-γGlu-C18 diacid])T-NH2; N-terminus assumed)
